The text below walks through data of ChEMBL document CHEMBL1201862, “PubChem BioAssay data set” (2004).

In test [1] the target is T1, Apoptotic protease-activating factor 1 (Homo sapiens, UniProt O14727).
T1 sequence (O14727 whole entry): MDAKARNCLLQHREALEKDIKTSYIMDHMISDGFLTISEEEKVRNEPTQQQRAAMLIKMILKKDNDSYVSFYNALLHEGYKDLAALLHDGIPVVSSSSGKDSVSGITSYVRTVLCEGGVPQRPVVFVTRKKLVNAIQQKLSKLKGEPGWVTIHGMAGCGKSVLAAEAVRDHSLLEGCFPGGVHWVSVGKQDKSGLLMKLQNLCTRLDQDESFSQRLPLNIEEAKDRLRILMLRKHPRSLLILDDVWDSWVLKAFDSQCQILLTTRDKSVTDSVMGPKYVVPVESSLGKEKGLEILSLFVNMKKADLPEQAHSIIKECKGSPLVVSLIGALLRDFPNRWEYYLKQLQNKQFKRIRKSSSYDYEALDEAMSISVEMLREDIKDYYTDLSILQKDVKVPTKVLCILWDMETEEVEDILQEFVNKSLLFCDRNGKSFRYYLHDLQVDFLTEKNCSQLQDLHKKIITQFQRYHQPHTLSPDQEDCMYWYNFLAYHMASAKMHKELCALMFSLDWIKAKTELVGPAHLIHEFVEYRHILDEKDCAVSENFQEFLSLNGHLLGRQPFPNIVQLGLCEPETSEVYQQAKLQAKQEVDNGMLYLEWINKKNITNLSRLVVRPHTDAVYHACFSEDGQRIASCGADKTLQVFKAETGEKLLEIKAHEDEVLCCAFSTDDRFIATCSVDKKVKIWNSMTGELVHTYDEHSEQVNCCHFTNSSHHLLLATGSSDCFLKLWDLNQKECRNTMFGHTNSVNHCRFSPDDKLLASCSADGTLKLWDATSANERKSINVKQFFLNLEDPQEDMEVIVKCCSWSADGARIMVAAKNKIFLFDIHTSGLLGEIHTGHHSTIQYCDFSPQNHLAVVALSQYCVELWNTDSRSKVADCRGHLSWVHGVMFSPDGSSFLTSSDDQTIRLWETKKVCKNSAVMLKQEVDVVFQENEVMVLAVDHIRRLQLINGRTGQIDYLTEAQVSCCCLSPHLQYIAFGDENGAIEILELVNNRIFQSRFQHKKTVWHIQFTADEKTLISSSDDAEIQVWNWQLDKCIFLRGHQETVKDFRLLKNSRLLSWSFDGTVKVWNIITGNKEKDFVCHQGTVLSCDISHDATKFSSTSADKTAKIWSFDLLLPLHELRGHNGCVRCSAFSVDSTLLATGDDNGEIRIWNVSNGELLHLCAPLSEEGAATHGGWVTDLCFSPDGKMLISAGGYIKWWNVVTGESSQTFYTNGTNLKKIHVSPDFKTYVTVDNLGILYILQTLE
The test is classed as functional.

Test [2] has as its target T2, Heat shock factor protein 1 (Mus musculus, UniProt P38532).
T2 sequence (P38532 whole entry): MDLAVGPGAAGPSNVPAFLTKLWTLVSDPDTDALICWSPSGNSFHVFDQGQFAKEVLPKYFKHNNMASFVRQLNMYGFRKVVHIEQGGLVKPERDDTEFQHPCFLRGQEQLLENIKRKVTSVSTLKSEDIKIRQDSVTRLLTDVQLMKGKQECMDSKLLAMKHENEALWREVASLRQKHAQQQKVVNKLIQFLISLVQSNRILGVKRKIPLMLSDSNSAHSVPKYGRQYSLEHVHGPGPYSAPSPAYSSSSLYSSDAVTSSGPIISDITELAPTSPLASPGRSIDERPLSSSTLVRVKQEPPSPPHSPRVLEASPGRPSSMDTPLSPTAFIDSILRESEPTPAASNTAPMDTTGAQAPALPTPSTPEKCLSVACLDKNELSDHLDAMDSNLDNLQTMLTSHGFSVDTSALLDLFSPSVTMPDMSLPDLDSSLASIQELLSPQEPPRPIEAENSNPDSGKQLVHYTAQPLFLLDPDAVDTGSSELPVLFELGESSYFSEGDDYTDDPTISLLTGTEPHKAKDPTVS
Put plainly: HSF1 potentiators in luciferase reporter cells, confirmation, cell-based, NIH3T3, luminescence, dose retest (AID 435004).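 Note: stress induced by proteasome inhibitor MG132 added 30 min after compound; luciferase reporter driven by HSF1 response element in NIH3T3 cells; actives raise luminescence as potentiators of the MG132 stress response.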 The test is classed as functional.

Test [3] in a line: MC4R antagonists, dose response, counter-screen for LGR2 antagonist project, cell-based, plate reader, cherry pick (AID 743444).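 Note: transfected HEK 293 cells stimulated with alpha-MSH peptide; potency of inhibitors of the alpha-MSH evoked signal.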 The test is classed as functional.
The next test addresses Fatty acid synthase (Homo sapiens, UniProt P49327). In words: FAS thioesterase domain inhibitors, dose response, biochemical, kinetic fluorescence intensity (AID 624326).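 Note: rate of fluorescence rise from hydrolysis of a fluorogenic O-methyl fluorescein ester substrate.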 The test is classed as functional.
Test [4] can be described thus: LGR2 antagonists, dose response, cell-based, HEK293, CRE-luciferase reporter, cherry pick, set 2 (AID 743343).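 Note: transfected cells were stimulated with diluted bursicon conditioned medium after compound addition.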 The test is classed as functional.
In a further test the test system is HEK293. Put plainly: cells. Particulars: Homo sapiens.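 Note: potency for activating a luciferase reporter driven by the short GAA30 frataxin promoter.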
A further test concerns the target Nonstructural protein 1 (Influenza A virus, UniProt Q194T2). The test is classed as functional, Influenza A virus (A/California/07/2009(H1N1)).
Test [5] is described as follows: C. albicans growth with fluconazole, confirmation, fluorescence, retest (AID 2467). The test is classed as functional, cell-based.
The nature of test [6]: HEK293 cell cytotoxicity, dose response, cytotoxicity control, plate reader, cherry-picked samples (AID 743446). The test is classed as functional, cell-based.
In another test the test system is BJ. Put plainly: cells. The test is classed as functional, cell-based. As to conditions: Homo sapiens.
A further test concerns the target Large T antigen (Simian virus 40, UniProt P03070). The test is classed as functional, Betapolyomavirus macacae.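 Note: Confirmatory-stage PubChem screen for compounds that inhibit SV40 T antigen.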
Test [7] is described as follows: inhibitors of intracellular T. cruzi replication, confirmation, NIH3T3 host cells, beta-gal luminescence (AID 2044).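 Note: intracellular parasites grown in NIH/3T3 mouse fibroblasts as host cells; luminescent beta-galactosidase reporter signal from transgenic T. cruzi replicating inside host cells; inhibitors lower the luminescence signal.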 The test is classed as functional, cell-based.
Another test deals with Hexokinase HKDC1 (Homo sapiens, UniProt Q2TB90). Put plainly: HKDC1 hexokinase inhibitors, dose response, biochemical, W721R variant (AID 504729). The test is classed as functional.

Molecules are shown by their SMILES. Active and inactive are the calls of the source.

Hexokinase HKDC1, sequence (Q2TB90 whole entry): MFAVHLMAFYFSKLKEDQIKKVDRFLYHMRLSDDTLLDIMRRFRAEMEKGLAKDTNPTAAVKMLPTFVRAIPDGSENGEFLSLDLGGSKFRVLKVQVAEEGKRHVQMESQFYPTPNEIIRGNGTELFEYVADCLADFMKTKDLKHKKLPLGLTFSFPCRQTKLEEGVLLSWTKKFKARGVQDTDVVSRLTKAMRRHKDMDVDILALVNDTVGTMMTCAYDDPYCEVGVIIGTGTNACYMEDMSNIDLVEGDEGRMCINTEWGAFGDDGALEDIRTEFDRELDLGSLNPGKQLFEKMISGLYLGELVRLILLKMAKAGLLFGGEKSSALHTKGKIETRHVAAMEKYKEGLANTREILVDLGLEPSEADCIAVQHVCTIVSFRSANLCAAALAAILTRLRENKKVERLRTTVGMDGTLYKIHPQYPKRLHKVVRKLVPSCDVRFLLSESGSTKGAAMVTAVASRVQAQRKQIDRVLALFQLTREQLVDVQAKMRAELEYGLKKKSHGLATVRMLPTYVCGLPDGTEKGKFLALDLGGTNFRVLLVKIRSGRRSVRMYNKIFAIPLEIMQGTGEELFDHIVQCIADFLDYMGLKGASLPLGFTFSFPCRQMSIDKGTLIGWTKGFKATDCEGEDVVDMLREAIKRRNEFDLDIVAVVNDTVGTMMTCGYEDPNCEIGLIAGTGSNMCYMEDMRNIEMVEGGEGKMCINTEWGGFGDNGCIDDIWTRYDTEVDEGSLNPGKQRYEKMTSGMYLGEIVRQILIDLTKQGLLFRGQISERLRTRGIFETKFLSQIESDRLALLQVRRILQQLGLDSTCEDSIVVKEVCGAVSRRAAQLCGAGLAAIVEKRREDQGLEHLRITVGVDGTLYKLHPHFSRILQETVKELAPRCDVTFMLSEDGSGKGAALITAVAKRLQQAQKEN
Nonstructural protein 1, sequence (Q194T2 whole entry): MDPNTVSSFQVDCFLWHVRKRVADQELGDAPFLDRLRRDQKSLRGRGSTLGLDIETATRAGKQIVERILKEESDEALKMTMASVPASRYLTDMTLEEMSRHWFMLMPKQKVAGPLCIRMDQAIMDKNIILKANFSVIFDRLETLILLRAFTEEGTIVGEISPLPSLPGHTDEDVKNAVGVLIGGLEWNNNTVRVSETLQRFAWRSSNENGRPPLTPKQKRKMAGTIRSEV
Large T antigen, sequence (P03070 whole entry): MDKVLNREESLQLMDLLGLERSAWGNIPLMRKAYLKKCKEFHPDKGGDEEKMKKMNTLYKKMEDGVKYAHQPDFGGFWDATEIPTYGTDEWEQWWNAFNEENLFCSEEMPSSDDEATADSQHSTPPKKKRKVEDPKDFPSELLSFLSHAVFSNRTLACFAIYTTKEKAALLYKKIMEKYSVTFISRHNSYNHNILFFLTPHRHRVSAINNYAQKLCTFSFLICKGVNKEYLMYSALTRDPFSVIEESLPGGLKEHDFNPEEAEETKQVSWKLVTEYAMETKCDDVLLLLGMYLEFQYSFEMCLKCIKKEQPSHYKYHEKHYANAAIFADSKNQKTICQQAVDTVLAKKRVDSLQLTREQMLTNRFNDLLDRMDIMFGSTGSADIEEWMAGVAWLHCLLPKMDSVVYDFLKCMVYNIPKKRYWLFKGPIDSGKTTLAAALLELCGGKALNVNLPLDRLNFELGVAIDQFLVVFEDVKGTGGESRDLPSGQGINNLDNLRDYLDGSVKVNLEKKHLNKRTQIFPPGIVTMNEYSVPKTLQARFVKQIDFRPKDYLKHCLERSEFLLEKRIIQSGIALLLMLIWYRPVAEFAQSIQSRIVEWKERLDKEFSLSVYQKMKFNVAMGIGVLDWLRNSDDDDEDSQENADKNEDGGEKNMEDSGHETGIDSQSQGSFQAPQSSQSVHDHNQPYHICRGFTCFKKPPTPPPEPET
Fatty acid synthase, sequence (P49327 whole entry, the tested form may be a part): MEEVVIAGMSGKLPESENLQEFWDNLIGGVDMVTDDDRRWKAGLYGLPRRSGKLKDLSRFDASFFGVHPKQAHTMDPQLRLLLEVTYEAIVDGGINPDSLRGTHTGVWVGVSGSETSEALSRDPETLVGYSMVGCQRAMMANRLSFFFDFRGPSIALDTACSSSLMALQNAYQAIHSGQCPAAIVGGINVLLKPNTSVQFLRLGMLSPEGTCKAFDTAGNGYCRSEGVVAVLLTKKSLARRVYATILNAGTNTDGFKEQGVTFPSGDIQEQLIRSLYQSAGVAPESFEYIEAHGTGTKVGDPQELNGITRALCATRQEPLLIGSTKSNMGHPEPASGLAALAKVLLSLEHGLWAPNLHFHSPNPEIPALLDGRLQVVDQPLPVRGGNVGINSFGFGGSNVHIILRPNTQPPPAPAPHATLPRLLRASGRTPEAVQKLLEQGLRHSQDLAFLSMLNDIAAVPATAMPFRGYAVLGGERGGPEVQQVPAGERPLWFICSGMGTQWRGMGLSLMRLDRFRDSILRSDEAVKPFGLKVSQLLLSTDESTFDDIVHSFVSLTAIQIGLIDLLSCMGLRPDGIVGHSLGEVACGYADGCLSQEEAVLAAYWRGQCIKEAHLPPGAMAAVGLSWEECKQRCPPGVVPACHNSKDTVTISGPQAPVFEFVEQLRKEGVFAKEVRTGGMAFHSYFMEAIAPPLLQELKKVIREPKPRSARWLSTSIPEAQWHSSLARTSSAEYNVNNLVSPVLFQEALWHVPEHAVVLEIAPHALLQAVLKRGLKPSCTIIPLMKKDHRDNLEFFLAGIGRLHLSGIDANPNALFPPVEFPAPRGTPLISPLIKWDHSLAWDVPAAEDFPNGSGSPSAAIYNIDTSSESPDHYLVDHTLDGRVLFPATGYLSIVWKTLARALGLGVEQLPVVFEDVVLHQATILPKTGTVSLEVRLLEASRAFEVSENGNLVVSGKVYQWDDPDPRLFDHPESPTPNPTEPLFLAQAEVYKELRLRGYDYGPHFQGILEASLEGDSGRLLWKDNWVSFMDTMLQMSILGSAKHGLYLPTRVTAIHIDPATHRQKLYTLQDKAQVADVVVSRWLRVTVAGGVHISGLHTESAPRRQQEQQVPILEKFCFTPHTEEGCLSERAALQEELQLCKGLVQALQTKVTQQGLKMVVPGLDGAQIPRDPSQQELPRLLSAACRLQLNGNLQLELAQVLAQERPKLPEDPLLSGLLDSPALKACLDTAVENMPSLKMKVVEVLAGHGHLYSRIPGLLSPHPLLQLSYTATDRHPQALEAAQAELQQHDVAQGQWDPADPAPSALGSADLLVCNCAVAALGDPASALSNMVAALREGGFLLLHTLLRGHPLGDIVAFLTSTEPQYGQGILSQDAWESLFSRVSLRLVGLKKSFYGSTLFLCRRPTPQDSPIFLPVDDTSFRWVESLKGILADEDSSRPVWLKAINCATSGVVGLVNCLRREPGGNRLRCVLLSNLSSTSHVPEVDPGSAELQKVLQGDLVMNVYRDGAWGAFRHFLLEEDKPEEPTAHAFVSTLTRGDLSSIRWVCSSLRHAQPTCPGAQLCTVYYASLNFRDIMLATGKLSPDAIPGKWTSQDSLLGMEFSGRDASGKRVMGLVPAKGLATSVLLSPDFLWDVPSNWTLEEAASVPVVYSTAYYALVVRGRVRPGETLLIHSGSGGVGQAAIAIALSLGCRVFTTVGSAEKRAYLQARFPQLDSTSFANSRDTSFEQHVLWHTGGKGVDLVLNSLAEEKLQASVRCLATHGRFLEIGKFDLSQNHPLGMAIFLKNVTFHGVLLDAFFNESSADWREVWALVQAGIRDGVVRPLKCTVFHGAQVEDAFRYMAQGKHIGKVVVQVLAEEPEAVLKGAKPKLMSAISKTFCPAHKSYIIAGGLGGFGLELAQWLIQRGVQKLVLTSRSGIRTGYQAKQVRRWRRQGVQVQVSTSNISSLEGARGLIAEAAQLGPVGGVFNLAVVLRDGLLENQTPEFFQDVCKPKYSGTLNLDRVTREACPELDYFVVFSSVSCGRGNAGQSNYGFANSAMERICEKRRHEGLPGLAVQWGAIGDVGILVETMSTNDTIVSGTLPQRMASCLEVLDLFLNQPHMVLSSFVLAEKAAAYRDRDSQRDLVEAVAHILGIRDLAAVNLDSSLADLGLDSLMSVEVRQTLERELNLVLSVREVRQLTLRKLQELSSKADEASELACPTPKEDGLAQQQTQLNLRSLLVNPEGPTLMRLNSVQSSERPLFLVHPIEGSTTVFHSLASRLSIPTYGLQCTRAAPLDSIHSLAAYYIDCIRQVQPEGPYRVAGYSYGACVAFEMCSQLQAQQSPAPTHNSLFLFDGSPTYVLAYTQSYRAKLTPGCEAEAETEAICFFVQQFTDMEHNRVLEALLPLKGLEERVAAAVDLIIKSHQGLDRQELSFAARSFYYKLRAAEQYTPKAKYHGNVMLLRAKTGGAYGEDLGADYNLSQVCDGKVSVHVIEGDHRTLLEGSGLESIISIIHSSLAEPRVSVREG

Consider `O=c1[nH]c(N2CCOCC2)cc2ccccc12`, for which the IC50 in [1] is 8.83 µM (active).

Consider `O=[N+]([O-])c1ccc(Sc2nc3ccccc3o2)c([N+](=O)[O-])c1`, for which the EC50 in [2] is 11.7 µM (active); in the test with HEK293 it was > 59.6 µM (inactive); in test [5], 1.37 µM (active); with BJ it was 8.14 µM (active); in [7], 1.27 µM (active). For the same molecule, the half-maximal activity concentration (AC50) is 28.8 µM (active) in [3], 24.9 µM (active) in [4] and 8.49 µM (active) in test [6]. The half-inhibitory concentration (IC50) was 10.1 µM (active) at Fatty acid synthase, 34.2 µM (active) on Nonstructural protein 1, 84.9 µM (active) at Large T antigen and 37.4 µM (inactive) at Hexokinase HKDC1.

For `CCC(COC)Oc1cc(NCc2ccccc2)c2ncn(C(C)C)c2c1` (configuration not stated), the concentration at half-maximal activity (AC50) was 33.5 µM (active) in test [3], 23.1 µM (active) in test [4] and 30.4 µM (active) in test [6]. Besides, the IC50 in [1] was 16.7 µM (active).
